Experimental data published in US20130137724A1, “PHARMACEUTICAL COMPOSITIONS COMPRISING 7-(1H-IMIDAZOL-4-YLMETHYL)-5,6,7,8-TETRAHYDRO-QUINOLINE FOR RETINAL NEUROPROTECTION” (ALLERGAN, INC., priority 2011, published 2013).

Columns and labels:
α2A-adrenergic receptor = biological target: T1, α2A-adrenergic receptor (Homo sapiens, UniProt P08913); conditions: for Percent of Bmax Decrease: 1 μM compound, 24 hours, HEK 293T cells stably transfected with α2A-adrenergic receptor; for down-regulation of alpha2A receptor / receptor density: binding studies, result in words
T1 sequence (P08913 1-465): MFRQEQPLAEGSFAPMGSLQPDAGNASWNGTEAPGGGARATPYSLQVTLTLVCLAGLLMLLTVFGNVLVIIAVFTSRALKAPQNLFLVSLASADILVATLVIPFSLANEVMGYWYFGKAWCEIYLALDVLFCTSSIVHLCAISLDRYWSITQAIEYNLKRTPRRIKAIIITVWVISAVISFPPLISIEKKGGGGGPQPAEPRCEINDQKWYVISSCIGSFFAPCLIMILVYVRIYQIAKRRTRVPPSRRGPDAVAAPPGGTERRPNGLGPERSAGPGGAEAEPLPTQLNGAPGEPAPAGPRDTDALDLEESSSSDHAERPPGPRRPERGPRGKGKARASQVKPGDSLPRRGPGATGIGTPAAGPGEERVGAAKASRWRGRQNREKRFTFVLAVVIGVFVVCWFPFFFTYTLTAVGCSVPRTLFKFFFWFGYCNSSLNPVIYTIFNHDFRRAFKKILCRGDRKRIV
Protocol: Human embryonic kidney (HEK) 293T cells stably transfected with the α2A-adrenergic receptor were grown to 50-60% confluency on T-175 culture flasks in DMEM (Gibco, cat. #11995), 10% FBS (Gibco, cat. #16140), 0.25 ug/mL puromycin (Sigma, cat. #P-8833), and 1% antibiotic-antimycotic (Gibco, cat. #15240) maintained at 37° C. and 5% CO2. […] The cells were then washed with room temperature Dulbecco's phosphate buffered saline (DPBS; Gibco, cat. #14190).
Cells were harvested with 4° C. Tris-EDTA buffer [50 mM Tris-HCl, 5 mM EDTA; pH 7.4] and centrifuged at 5,000×g for 5 minutes at 4° C. Membrane preparation was conducted by resuspending the cell pellets in 4° C. Tris-EDTA buffer and lysed with a Polytron disrupter two times (setting 7, 5 seconds each). The lysed suspension was then centrifuged at ˜35,000×g for 32 minutes at 4° C. After decanting the supernatant, the pelleted material was further lysed in 4° C. Tris buffer [50 mM Tris-HCl; pH 8.0] using the Polytron disrupter (setting 4, 5 seconds). Membranes were then aliquoted, pelleted at ˜37,000×g for 32 minutes at 4° C., and stored at −80° C. until use.
Membranes were thawed and resuspended using a Polytron disrupter in 4° C. HBSS-HEPES buffer [1 part 1M HEPES: 5 parts 10× Hank's Balanced Salt Solution: 43.8 parts H2O; pH 7.4 with KOH] and quantified via Bradford assay. The quantified protein was further diluted with HBSS-HEPES buffer to achieve a 100 μg/mL concentration. Membrane suspension was plated in a 96-well plate at 200 μLs/well ±10 μM phentolamine HCl (Sigma, cat. #P-7547) and [Methyl-^3H] Rauwolscine (15 nM to 0.05 nM; PerkinElmer, cat. #NET722250UC). The assay plate was slowly shaken and incubated at 25° C. for ninety minutes. Immediately following the above incubation, the assays were terminated by vacuum filtration over GF/B filters. Filters were then washed with 4° C. HBSS-HEPES buffer. The incorporated [Methyl-^3H] Rauwolscine was determined using a Microbeta 1450B liquid scintillation counter after the plates had dried overnight.

[1] = test system: blue light induced retinal damage; assay: Blue light model of retinal degeneration, retinal thickness by OCT; type: in vivo, rat; conditions: subcutaneous pump 0.3 and 1 mg/kg/day from two days before exposure, OCT 7 days post blue light, Sprague-Dawley rats
Protocol: Twenty 4-month old male Sprague-Dawley rats (body weight 470-550 g) were used in this study. The animals were exposed to room light on a 12 hour light/12 hour dark cycle before the experiment. All animals were dark adapted overnight (16-20 hours) before blue light. Under the intensity of 6100-6500 lux, rats were exposed to blue light for 4 hours. After the blue light, rats were placed in the dark for another 3 days before returning to normal 12 hour light/12 hour dark. Ocular Coherence Tomography (OCT) measurement was performed at 7 days post blue light exposure.
Histology studies have shown that the reduction in retinal thickness is attributable to loss of photoreceptors.

alpha 2A receptor = biological target: T2, alpha 2A receptor (Homo sapiens, UniProt P08913); assay: biochemical
T2 sequence (P08913 1-465): T1 sequence (P08913 1-465)
Protocol: The extent of binding is a measure of receptor activation. […] Membranes were thawed and resuspended using a Polytron disrupter in 4° C. membrane buffer and quantified via Bradford assay. […] The above mixture was then aliquoted, 50 μL/well, in a 96 well plate, combined with an equal volume of test compound dissolved in assay buffer [50 mM Tris-HCl, 100 mM NaCl, 5 mM MgCl2, 1 mM EDTA, and 1 mM DTT, pH 7.4 and 4° C.], and allowed to incubate for 5 minutes. […] Assays were terminated by vacuum filtration over GF/B filters blocked with 0.5% BSA.

[2] = test system: visual acuity in normal DB rabbits; assay: Visual enhancement model, spatial sweep visual evoked potential (sVEP) acuity; type: in vivo, rabbit; conditions: intravenous route, 10-30 minutes post-dose
Protocol: Spatial sweep visual evoked potential (sVEP) acuity. Spatial sVEP acuity was assessed with PowerDiva software version 1.8. Recordings were made bilaterally in conscious animals.

[3] = Drug level in the retina with continuous subcutaneous pump dosing; type: in vivo, rat; conditions: 0.3 mg/kg/day and 1 mg/kg/day, rats

Compound	Percent of Bmax Decrease (α2A-adrenergic receptor)	down-regulation of alpha2A receptor / receptor density (α2A-adrenergic receptor)	damage caused by blue light (retinal thickness by OCT) [1]	EC50 (alpha 2A receptor)	Relative Efficacy (alpha 2A receptor; efficacy relative to the full agonist brimonidine)	visual acuity (sVEP) [2]	drug levels in the retina [3]
Brc1c(N=C2NCCN2)ccc2nccnc12 [Brimonidine, (5-bromo-quinoxalin-6-yl)-imidazolidin-2-ylidene-amine, reference compound]	−45%	induced a strong reduction in the alpha 2A receptor density	–	–	–	–	–
c1cnc2c(c1)CC[C@H](Cc1c[nH]cn1)C2 [(S)-(+)-7-(1H-Imidazol-4-ylmethyl)-5,6,7,8-tetrahydro-quinoline]	−25%	induces very little down-regulation of alpha2A receptor	significantly reduced the damage caused by blue light	< 1 nM	0.6	enhances visual acuity	1.3 ng/g
